The subject of data set [1] is ES-2 cells. Description: Mitochondrial ROS production (MitoSOX Red). The format is cell-based. Particulars: 1 hr. As to the method: ES-2 cells (1×10^5 cells/mL) were plated in 12-well plates and allowed to attach overnight. Cells were treated for 1 hr with DMSO, 10 and 25 μM ferroptocide, 5 μM IB-DNQ, and 10 μM rotenone. Cells were washed with HBSS and incubated in the dark for 10 min with 5 μM MitoSOX Red probe. Cells were then washed 2× with HBSS and harvested at 1000×g, 3 min. After resuspension in 500 μl HBSS buffer, samples were analyzed with flow cytometry to record ten thousand events per sample in the PE channel in BD LSR II Flow Cytometer (BD Bioscience). FCS express V6 De Novo software was used to generate the histogram.

Data set [2] can be described thus: Pharmacokinetic assessment. The class given is in vivo, C57BL/6 mice. The protocol:
The protocol was approved by the IACUC at the University of Illinois at Urbana-Champaign (Protocol Number: 14173). In these studies, 10- to 12-week-old female C57BL/6 mice (purchased from Charles River) were used. Ferroptocide was formulated in 100% PEG400. Mice were treated with ferroptocide (40 mg/kg) via i.p. with three mice per time point (15, 30, 45, 60, 120, 240, 480, and 1440 min). At specific time points, mice were sacrificed, and blood was collected, centrifuged; the serum was frozen at −80° C. until analysis. The proteins in a 50 μL aliquot of serum were precipitated by the addition of 50 μL acetonitrile and the sample was centrifuged to remove the proteins. Serum concentrations of ferroptocide were determined by reverse phase HPLC (Shimadzu Corporation, Japan). PK parameters were determined using GraphPad Prism Version 5.00 for Windows.

For data set [3], the system named is human skin fibroblast (HFF-1) cells. Nature of the data set: Cell viability IC50 in non-cancerous cells. The class given is cell-based. The protocol: (§1) To a 384-well plate, 40 μL of 1.25× compound dilution or 1.25% DMSO-containing media was added (final volume of 1% DMSO). Concentrations of compounds tested were 100 μM to 100 nM. On each plate at least 3 technical replicates per compound were performed. Next, 10 μL of a 100,000 cells/mL suspension was added to each well, yielding a final concentration of 1,000 cells/well. To three wells in column 2 was added 1 μL of 10 mM doxorubicin (final concentration of 200 μM) as positive control of cell death. Plates were sealed with gas-permeable seals and incubated at 37° C. for 72 h. At that time, 5 μL of Alamar blue (440 μM resazurin in sterile PBS) was added and plates were incubated for 3-4 hours. Fluorescence was read on a Molecular Devices SpectraMax 3 (excitation=555 nm, emission=585 nm, emission cutoff=570 nm). Wells were normalized to the average of untreated wells (0% cell death). The data were plotted as compound concentration versus percent dead cells and fitted to a logistic-dose response curve using OriginPro 2015 (OriginLab, Northampton, Mass.). The data were generated in triplicate, and IC50 values are reported as the average of three separate experiments along with standard error of the mean.

Data set [4] deals with non-cancerous breast (MCF10A) cells. Nature of the data set: Cell viability IC50 in non-cancerous cells. The format is cell-based. Particulars: Homo sapiens, MCF-10A. As to the method: as §1
Data set [5] concerns HT-29 cells. Nature of the data set: RNA sequencing of treated cells. The class given is cell-based. Particulars: 10 μM, 6 hr. As to the method:
Total RNA was extracted by RNeasy Kit (QIAGEN) and digested with DNase (QIAGEN) from n=2 samples per condition (DMSO, 10 μM ferroptocide cells treated for 6 hr). RNA quality was assessed with a 2100 Agilent Bioanalyzer prior to library preparation. The RNAseq libraries were prepared using the TruSeq Stranded mRNAseq Sample Prep kit (version 1) following manufacturer's instruction (Illumina). Libraries were then quantified, pooled, and sequenced by single-end 150 base pairs using the Illumina HiSeq 4000 platform at the Roy J. Carver Biotechnology center. FASTQ files were generated and demultiplexed with the bcl2FASTQ v2.17.1.14 Conversion Software (Illumina). Libraries were sequenced at an average depth of 40-50 million reads per sample. Trimmomatic (v0.36) was utilized to remove sequencing adapters, low-quality bases (PHRED score <28), and reads less than 30 bases in length. Pseudo-alignment and transcript-level counting to NCBI's GRCh38.p11 transcriptome was then performed with Salmon (v 0.8.2) in quasi-mapping mode while correcting for sequence-specific and GC biases, and generating 30 bootstraps. Counts summarized to the gene level (NCBI annotation release 108) using tximport (v 1.6.0) and the “lengthScaledTPM” method. The counts were normalized using the TMM method from edgeR (v 3.20.5) and then transformed to log 2 counts per million (log CPM) with prior.count=3. Genes without at least log CPM>log 2(0.5) in at least 3 samples were filtered out, leaving 16,743 genes for differential expression testing. TMM normalization was re-done after filtering and then limma's (v 3.34.5) voom method was used to find differentially expressed genes for the pairwise comparisons of treatment vs. control in A549, and treatment vs. control in HT29 (batch 2 and 3, 8 samples total, 6 hr), and the interaction between treatment and cell line. P values were adjusted for multiple hypothesis testing with the Benjamini-Hochberg method to generate false discovery rates. Gene set enrichment analysis was done using ESGEA (v 1.6.1) for the Gene Ontology BP, CC and MF gene sets, KEGG pathway gene sets, and Pathway gene sets. The RNA sequencing data have been deposited to the GEO repository with the accession number GSE126868.

Data set [6] has as its system ES-2 cells. Nature of the data set: Confocal microscopy competition with fluorescent analogue P30. Particulars: pretreatment at 3× IC50 for 30 min, then P30 (5 μM). The format is cell-based. The protocol:
ES-2 cells (3×10^5 cell) were attached overnight in […] petri dish plates containing 2 ml of RPMI media. Prior to imaging, cells were stained for 30 min with Mitotracker Red CMXRoss at 100 nM final concentration. Upon media replacement, samples were pre-treated with 3× IC50 of ferroptocide, P27, L1, QQ1 for 30 min followed by treatment with 5 μM P30 for an additional 30 min and a PBS wash. PBS or phenol free media was added to each dish and cells were stained with Hoechst 33342 (1 μg/mL).

Where [7] appears, read: female, mouse, ip, 40 mg/kg i.p., C57BL/6 mice, serum.

Consider `C[C@@H]1CC[C@@]23C[C@H](O)C(=O)[C@@]2(O)[C@]1(C)[C@H](OC(=O)CCl)C[C@@H](C1=CCn2c(=O)n(-c4ccccc4)c(=O)n2C1)[C@@H]3C` [Compound P18, ferroptocide], for which the “mitochondrial ROS” value in data set [1] is given as “increase of mitochondrial ROS”. In data set [2] (setting [7]), the AUC (usually concentration integrated over time) was 7040 ng·h/mL and the half-life (commonly the time needed for the level to fall by half in the phase considered) stood at 9.96 min. Also, in data set [2] (mice), the “pharmacokinetics (in words)” value is on record as “poor pharmacokinetics”. Moreover, the IC50 (in general, the concentration that inhibits the measured activity by half) in data set [3] came to 4.1 µM. In data set [4], this compound registered an IC50 of 3.1 µM. Moreover, the “genes involved in ferroptosis modulated” value in data set [5] (FDR ≤0.05) is reported as 35/40. In addition, in data set [5] (HT-29), the “ATF3 upregulation (RNA-seq)” value is 11.5 fold, the “CHAC1 upregulation (RNA-seq)” value turned out to be 9.8 fold, the “DDIT3 upregulation (RNA-seq)” value is on record as 22.5 fold and the “DDIT4 upregulation (RNA-seq)” value stood at 11.3 fold. In addition, in data set [5] (HT-29), the “GCLC upregulation (RNA-seq)” value is on record as 3.5 fold, the “GCLM upregulation (RNA-seq)” value stood at 4.9 fold and the “SLC7A11 upregulation (RNA-seq)” value turned out to be 8.1 fold. For the same compound, the “competition of P30 staining” value in data set [6] is given as “competed away”.

The values are drawn from US20220089602A1, “COMPOUNDS THAT INDUCE FERROPTIC CELL DEATH” (The Board of Trustees of the University of Illinois, priority 2019, published 2022).
